Test results: paper PMC8400246, “Antimicrobial Activity and Action Mechanisms of Arg-Rich Short Analog Peptides Designed from the C-Terminal Loop Region of American Oyster Defensin (AOD)” (Marine Drugs, 2021)
Positions of bridges follow the written chain, without caps; N, C: chain ends. Residues, ends and D or L forms follow the SMILES beside them.

Experiments:
P. aeruginosa KCTC2004 = experiment: Ultrasensitive radial diffusion assay (URDA), MEC; type: cell-based, Pseudomonas aeruginosa; details: P. aeruginosa KCTC2004, Gram -, pH 6.6, 37 °C, triplicate, averaged
Method: (§1) The antimicrobial activity of the AOD analogs was assessed with an ultrasensitive radial diffusion assay (URDA), as described previously. The antimicrobial activity of the analogs (from 31.3 to 1000 μg/mL, 5 μL volume) was tested against several bacteria, including Bacillus subtilis KCTC1021, Streptococcus mutans KCCM40105, Aeromonas hydrophila KCTC2358, Escherichia coli D31, E. coli ML35p, Pseudomonas aeruginosa KCTC2004, Salmonella enterica KCTC2514, and Shigella sonnei KCTC2009. In addition, Cutibacterium acnes KCTC3314, Staphylococcus epidermidis KCTC1917, and Candida albicans KCTC7965 were used for the anti-acne activity test. All except C. acnes KCTC3314 were grown overnight for 18 h in tryptic soy broth (TSB; for bacteria) or Sabouraud dextrose broth (SDB; for C. albicans) at the appropriate temperature (25 °C for A. hydrophila, 37 °C for the others). C. acnes was grown for 72 h in reinforced clostridial medium (RCM) under anaerobic conditions with an anaerobic gas-generating pouch (GasPak EZ; Becton Dickinson and Company, Sparks, MD, USA) at 37 °C. Following overnight or 72-h incubation, the bacterial and C. albicans suspensions were diluted to a McFarland turbidity standard level of 0.5 (Vitek Colorimeter #52-1210; Hach, Loveland, CO, USA) corresponding to approximately 10^8 colony forming units (CFU)/mL for bacteria and 10^6 CFU/mL for C. albicans. Diluted bacterial or C. albicans suspension (0.5 mL) was added to 9.5 mL underlay gel containing 5 × 10^6 or 5 × 10^4 CFU/mL in 10 mM phosphate buffer (pH 6.6) with 0.03% TSB (or RCM) or 0.03% SDB and 1% Type I low-electroendosmosis agarose. The AOD analogs were serially diluted two-fold in 5 µL acidified water (0.01% acetic acid; HAc) and each dilution was added to 2.5-mm diameter wells in the 1-mm thick underlay gel. After incubation for 3 h at either 25 °C (for A. hydrophila) or 37 °C (for the others), the bacterial or yeast suspension was overlaid with 10 mL double-strength overlay gel containing 6% TSB, RCM, or SDB with 10 mM phosphate buffer (pH 6.6) in 1% agarose. Plates were incubated for an additional 18–24 h (72 h for C. acnes) and the clearing zone diameters were measured. After subtracting the diameter of the well (2.5 mm), the clearing zone diameter was expressed in units (0.1 mm = 1 U).
(§2) The minimal effective concentration (MEC; μg/mL) of the AOD analogs was calculated as the X-intercept of a plot of clearing zone diameter units against the log10 of the peptide concentration. Piscidin 1, an α-helical AMP isolated from hybrid striped bass (Morone saxatilis × Morone chrysops) was used as a positive control.

[1] = system: E. coli DH5α genomic DNA (16S ribosomal gene); experiment: DNA amplification (PCR) inhibition assay; type: biochemical, Escherichia coli; details: 1.5 µg of each analog, 0.2 µg E. coli DH5α gDNA, 30 cycles
Method: To determine whether AOD analogs target DNA amplification, the ability of the analogs to inhibit DNA amplification was assessed using E. coli DH5α genomic DNA (gDNA). Total gDNA was extracted using the phenol–chloroform method, as described previously. To assess the inhibition of DNA amplification, 1.5 µg AOD analog was added to the polymerase chain reaction (PCR) mixture. The PCR solution consisted of 0.2 µg purified gDNA, 5 µL 10× PCR buffer with MgCl2, 4 µL of each dNTP at 2.5 mM, 0.25 μL Ex Taq polymerase (Takara Bio, Shiga, Japan), 2.0 pmol each of primers 27F (5′-[…]-3′) and 1492R (5′-TACGGCTACCTTGTTACGA-CTT-3′), and up to 50 µL sterile distilled water. The PCR thermal cycling conditions were as follows: initial denaturation at 94 °C for 5 min; 30 cycles of 94 °C for 30 s, 55 °C for 30 s, and 72 °C for 2 min; and a final extension for 10 min at 72 °C. PCR was conducted using a Type 9700 Thermal Cycler (Perkin-Elmer, Norwalk City, CA, USA). The PCR products were confirmed through 1.5% agarose gel electrophoresis with 0.5 μg/mL EtBr. Piscidin 1 was used as a positive control and 0.01% HAc was used as a negative control.

S. mutans KCCM40105 = experiment: Ultrasensitive radial diffusion assay (URDA), MEC; type: cell-based, Streptococcus mutans; details: S. mutans KCCM40105, Gram +, pH 6.6, 37 °C, triplicate, averaged
Method: as §1, §2

C. albicans KCTC7965 = experiment: Ultrasensitive radial diffusion assay (URDA), MEC; type: cell-based, Candida albicans; details: C. albicans KCTC7965, yeast, SDB, pH 6.6, 37 °C, triplicate, averaged
Method: as §1, §2

B. subtilis KCTC1021 = experiment: Ultrasensitive radial diffusion assay (URDA), MEC; type: cell-based, Bacillus subtilis; details: B. subtilis KCTC1021, Gram +, 10 mM phosphate buffer pH 6.6, 37 °C, X-intercept of clearing zone vs log10 concentration, triplicate, averaged
Method: as §1, §2

A. hydrophila KCTC2358 = experiment: Ultrasensitive radial diffusion assay (URDA), MEC; type: cell-based, Aeromonas hydrophila; details: A. hydrophila KCTC2358, Gram -, pH 6.6, 25 °C, triplicate, averaged
Method: as §1, §2

S. sonnei KCTC2009 = experiment: Ultrasensitive radial diffusion assay (URDA), MEC; type: cell-based, Shigella sonnei; details: S. sonnei KCTC2009, Gram -, pH 6.6, 37 °C, triplicate, averaged
Method: as §1, §2

[2] = system: 100-bp DNA ladder and DNA polymerase; experiment: Competitive binding between DNA and DNA polymerase; details: 1 μg peptide, 0.2 μg 100-bp DNA ladder, DNA polymerase 1.0 μL (5 units/μL), 37 °C, 60 min
Method: To assess the preferential binding ability of the AOD analogs to DNA or DNA polymerase, a competitive binding assay was performed. Briefly, AOD analog was added to a reaction mixture containing DNA or DNA polymerase and incubated for 60 min at 37 °C. […] Piscidin 1 and 0.01% HAc were the positive and negative controls, respectively.

[3] = system: tested strains (bacteria and the yeast C. albicans); experiment: URDA, overall antimicrobial activity; type: cell-based; details: all tested strains
Method: The antimicrobial activity of the AOD analogs was assessed with an ultrasensitive radial diffusion assay (URDA), as described previously. The antimicrobial activity of the analogs (from 31.3 to 1000 μg/mL, 5 μL volume) was tested against several bacteria, including Bacillus subtilis KCTC1021, Streptococcus mutans KCCM40105, Aeromonas hydrophila KCTC2358, Escherichia coli D31, E. coli ML35p, Pseudomonas aeruginosa KCTC2004, Salmonella enterica KCTC2514, and Shigella sonnei KCTC2009. In addition, Cutibacterium acnes KCTC3314, Staphylococcus epidermidis KCTC1917, and Candida albicans KCTC7965 were used for the anti-acne activity test. All except C. acnes KCTC3314 were grown overnight for 18 h in tryptic soy broth (TSB; for bacteria) or Sabouraud dextrose broth (SDB; for C. albicans) at the appropriate temperature (25 °C for A. hydrophila, 37 °C for the others). C. acnes was grown for 72 h in reinforced clostridial medium (RCM) under anaerobic conditions with an anaerobic gas-generating pouch (GasPak EZ; Becton Dickinson and Company, Sparks, MD, USA) at 37 °C. […] Plates were incubated for an additional 18–24 h (72 h for C. acnes) and the clearing zone diameters were measured. […]
The minimal effective concentration (MEC; μg/mL) of the AOD analogs was calculated as the X-intercept of a plot of clearing zone diameter units against the log10 of the peptide concentration. […]

S. epidermidis KCTC1917 = experiment: Ultrasensitive radial diffusion assay (URDA), MEC; type: cell-based, Staphylococcus epidermidis; details: S. epidermidis KCTC1917, Gram +, pH 6.6, 37 °C, triplicate, averaged
Method: as §1, §2

100-bp DNA ladder = experiment: DNA binding assay (electrophoretic mobility shift); details: 1 μg analog with 0.2 μg 100-bp DNA ladder, 37 °C, 60 min, 1.8% agarose gel with EtBr
Method: To evaluate the binding ability of the AOD analogs to intracellular components, a DNA binding assay was performed as previously described with minor modifications. The DNA-binding ability of the AOD analogs was assessed through observation of the inhibition of migration of DNA bands through agarose gels. A commercial 100-bp DNA ladder (0.2 μg) (Bioneer Corp., Daejeon, South Korea) was mixed with each analog (1 μg) in 0.01% acetic acid, and the resulting mixture was incubated at 37 °C for 60 min and then electrophoresed on 1.8% agarose gels containing 0.5 μg/mL ethidium bromide (EtBr). HAc (0.01%) was used as a negative control.
To determine the concentration required for the interaction of AOD analogs with DNA, a DNA binding assay was performed with various mixing ratios of analog A3 (0.25–1.0 μg/mL) and 100-bp DNA ladder (0.1–0.4 μg), as described above.

C. acnes KCTC3314 = experiment: Ultrasensitive radial diffusion assay (URDA), MEC; type: cell-based, Cutibacterium acnes; details: C. acnes KCTC3314, Gram +, anaerobic, RCM, 72 h, 37 °C, triplicate, averaged
Method: as §1, §2

S. enterica KCTC2514 = experiment: Ultrasensitive radial diffusion assay (URDA), MEC; type: cell-based, Salmonella enterica; details: S. enterica KCTC2514, Gram -, pH 6.6, 37 °C, triplicate, averaged
Method: as §1, §2

E. coli D31 = experiment: Ultrasensitive radial diffusion assay (URDA), MEC; type: cell-based, Escherichia coli; details: E. coli D31, Gram -, pH 6.6, 37 °C, triplicate, averaged
Method: as §1, §2

E. coli ML35p = experiment: Ultrasensitive radial diffusion assay (URDA), MEC; type: cell-based, Escherichia coli; details: Gram -, pH 6.6, 37 °C, triplicate, averaged
Method: as §1, §2

Row | Compound | Minimal Effective Concentration (P. aeruginosa KCTC2004) [µg/mL] | inhibition of DNA amplification (PCR) [1] | Minimal Effective Concentration (S. mutans KCCM40105) [µg/mL] | Minimal Effective Concentration (C. albicans KCTC7965) [µg/mL] | Minimal Effective Concentration (B. subtilis KCTC1021) [µg/mL] | Minimal Effective Concentration (A. hydrophila KCTC2358) [µg/mL] | Minimal Effective Concentration (S. sonnei KCTC2009) [µg/mL] | competitive binding between DNA and DNA polymerase (electrophoretic mobility of DNA) [2] | antimicrobial activity (in words) [3] | Minimal Effective Concentration (S. epidermidis KCTC1917) [µg/mL] | electrophoretic mobility of the DNA (DNA-binding ability) (100-bp DNA ladder) | Minimal Effective Concentration (C. acnes KCTC3314) [µg/mL] | Minimal Effective Concentration (S. enterica KCTC2514) [µg/mL] | Minimal Effective Concentration (E. coli D31) [µg/mL] | Minimal Effective Concentration (E. coli ML35p) [µg/mL]
1 | CC(=O)N[C@H]1CSSC[C@@H](C(N)=O)NC(=O)[C@H](CCCNC(=N)N)NC(=O)[C@H](CC(C)C)NC(=O)[C@H](CCCNC(=N)N)NC(=O)[C@H](CCCNC(=N)N)NC(=O)[C@H](Cc2c[nH]c3ccccc23)NC(=O)CNC(=O)[C@H](C)NC1=O [Analog A1] (Ac-CAGWRRLRC-NH2; disulfide 1-9) | 15.0 | partially or completely inhibited | 68.0 | >125.0 | 14.0 | 17.0 | 40.0 | inhibited | much weaker antimicrobial activity than the other analogs | >100.0 | inhibited | >100.0 | 24.0 | 42.0 | >100.0
2 | CC(C)C[C@@H]1NC(=O)[C@H](CCCNC(=N)N)NC(=O)[C@H](CC(C)C)NC(=O)[C@H](CCCNC(=N)N)NC(=O)[C@H](Cc2c[nH]c3ccccc23)NC(=O)[C@H](CCCNC(=N)N)NC(=O)[C@@H](N)CSSC[C@@H](C(=O)O)NC(=O)[C@H](CCCNC(=N)N)NC1=O [Analog A2] (H-CRWRLRLRC-OH; disulfide 1-9) | 7.6 | did not inhibit | 9.9 | >125.0 | 3.8 | 14.0 | 18.0 | inhibited | – | 24.0 | inhibited | >100.0 | 20.0 | 2.0 | 13.0
